Calls of active or inactive are those of the source.
Key:
[1] = biological target: Botulinum neurotoxin type A (Clostridium botulinum (strain Hall / ATCC 3502 / NCTC 13319 / Type A), UniProt P0DPI1); assay: High-throughput multiplex microsphere dose response for inhibitors of toxin protease, specifically Botulinum neurotoxin light chain A protease, compounds from Cherry Pick 01.; type: functional; settings: read-out: EC50_MICROM
[2] = biological target: Protein disulfide-isomerase (Homo sapiens, UniProt P07237); assay: PDI inhibitors, insulin aggregation turbidity, dose response, biochemical, absorbance, cherry-picked samples (AID 602350); type: functional
CAAX prenyl protease 2 [3] = biological target: T1, CAAX prenyl protease 2 (Saccharomyces cerevisiae S288c, UniProt Q03530); assay: yeast Rce1 CaaX protease inhibitors, dose response, biochemical, plate reader, dry powder retest (AID 588851)
T1 sequence (Q03530 whole entry): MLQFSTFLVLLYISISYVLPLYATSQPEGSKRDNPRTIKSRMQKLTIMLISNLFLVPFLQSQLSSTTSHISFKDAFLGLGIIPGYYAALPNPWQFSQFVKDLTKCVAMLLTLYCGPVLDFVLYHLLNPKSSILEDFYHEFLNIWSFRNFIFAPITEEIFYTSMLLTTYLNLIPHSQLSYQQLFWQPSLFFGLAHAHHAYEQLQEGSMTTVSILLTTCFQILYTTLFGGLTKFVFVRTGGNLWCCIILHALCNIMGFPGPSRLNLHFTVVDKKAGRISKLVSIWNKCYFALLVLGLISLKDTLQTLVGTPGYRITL

CAAX prenyl protease 2 [4] = biological target: T2, CAAX prenyl protease 2 (Homo sapiens, UniProt Q9Y256); assay: human Rce1 protease inhibitors, dose response, biochemical, plate reader, dry powder samples (AID 588848)
T2 sequence (Q9Y256 whole entry): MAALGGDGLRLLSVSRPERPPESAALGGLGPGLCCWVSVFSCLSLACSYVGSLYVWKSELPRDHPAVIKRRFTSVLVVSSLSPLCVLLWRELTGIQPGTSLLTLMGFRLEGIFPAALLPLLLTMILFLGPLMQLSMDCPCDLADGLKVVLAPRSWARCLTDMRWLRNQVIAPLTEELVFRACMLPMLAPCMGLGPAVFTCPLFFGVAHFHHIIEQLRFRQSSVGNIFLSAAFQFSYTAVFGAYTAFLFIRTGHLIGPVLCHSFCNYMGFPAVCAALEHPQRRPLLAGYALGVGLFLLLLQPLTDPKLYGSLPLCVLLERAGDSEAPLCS

Cytochrome P450 1A2 = biological target: T3, Cytochrome P450 1A2 (Homo sapiens, UniProt P05177);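 note: PubChem cytochrome P450 panel assay, CYP1A2 panel member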
T3 sequence (P05177 whole entry): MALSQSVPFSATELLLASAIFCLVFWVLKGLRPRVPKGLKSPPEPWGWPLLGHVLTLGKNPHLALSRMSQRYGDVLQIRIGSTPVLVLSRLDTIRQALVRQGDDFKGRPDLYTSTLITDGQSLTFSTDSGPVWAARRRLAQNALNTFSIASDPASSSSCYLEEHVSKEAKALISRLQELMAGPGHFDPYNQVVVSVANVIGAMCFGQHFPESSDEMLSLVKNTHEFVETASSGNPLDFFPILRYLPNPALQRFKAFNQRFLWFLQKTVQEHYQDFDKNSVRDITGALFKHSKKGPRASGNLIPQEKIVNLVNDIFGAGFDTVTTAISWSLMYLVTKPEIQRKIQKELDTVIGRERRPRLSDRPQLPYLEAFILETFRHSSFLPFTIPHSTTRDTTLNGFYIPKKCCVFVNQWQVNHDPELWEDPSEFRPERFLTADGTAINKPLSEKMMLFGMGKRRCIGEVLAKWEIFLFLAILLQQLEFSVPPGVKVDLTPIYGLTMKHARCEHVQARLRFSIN

CAAX prenyl protease 2 [5] = biological target: T1, CAAX prenyl protease 2; type: biochemical
Trypsin = Trypsin (Sus scrofa, UniProt P00761); assay: porcine trypsin inhibitors, dose response, selectivity assay for Rce1 protease inhibitor project, biochemical, quenched peptide fluorescence, cherry-pick (AID 488789)
[6] = biological target: DNA damage-inducible transcript 3 protein (Mus musculus, UniProt P35639); type: functional, Cricetulus griseus
[7] = cytotoxicity in HPDE-C7 cells, cell-based, fluorescence, HTS (AID 430); type: functional; settings: Homo sapiens
[8] = Shn3 3'UTR reporter inhibitors, dose response, cell-based, Clone20 osteoblasts, firefly luciferase, cherry-picked (AID 624132); type: functional;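 note: firefly luciferase luminescence from reporter carrying the Shn3 3'UTR in osteoblasts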
Beta Lactamase = Beta Lactamase (Pseudomonas aeruginosa, UniProt Q932Y6); assay: beta-lactamase reporter inhibitor potency, dose response, artefact control for TLR9-MyD88 binding inhibitor project, BLA reporter cells, FRET fluorescence (AID 588341); type: cell-based;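 note: cell based assay in CHO-K1 cells stably expressing beta-lactamase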
CHO = assay: cytotoxicity in TLR9-MyD88 CHO cells, dose response, cytotoxicity control for TLR9-MyD88 binding inhibitor project, cell-based, luminescence (AID 588339); type: functional, hamster; settings: Cricetulus griseus;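 note: CHO cells stably coexpressing TLR9 and MyD88 fusions from primary screen; compound exposure lasted 48 hours before viability readout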
[9] = biological target: Sphingosine 1-phosphate receptor 4 (Homo sapiens, UniProt O95977); assay: Fluorescence dose response cell-based high throughput screening assay for antagonists of the Sphingosine 1-Phosphate Receptor 4 (S1P4). [Related pubchem assays: 1524 (Confirmation in triplicates.), 1510 (Primary screen.)]; type: functional
[10] = biological target: T4, Replicative DNA helicase DnaB (Mycobacterium tuberculosis, UniProt P9WMR3); assay: DnaB intein splicing inhibitors, dose response, biochemical, cell-free fluorescence (AID 449749); type: functional
T4 sequence (P9WMR3 whole entry): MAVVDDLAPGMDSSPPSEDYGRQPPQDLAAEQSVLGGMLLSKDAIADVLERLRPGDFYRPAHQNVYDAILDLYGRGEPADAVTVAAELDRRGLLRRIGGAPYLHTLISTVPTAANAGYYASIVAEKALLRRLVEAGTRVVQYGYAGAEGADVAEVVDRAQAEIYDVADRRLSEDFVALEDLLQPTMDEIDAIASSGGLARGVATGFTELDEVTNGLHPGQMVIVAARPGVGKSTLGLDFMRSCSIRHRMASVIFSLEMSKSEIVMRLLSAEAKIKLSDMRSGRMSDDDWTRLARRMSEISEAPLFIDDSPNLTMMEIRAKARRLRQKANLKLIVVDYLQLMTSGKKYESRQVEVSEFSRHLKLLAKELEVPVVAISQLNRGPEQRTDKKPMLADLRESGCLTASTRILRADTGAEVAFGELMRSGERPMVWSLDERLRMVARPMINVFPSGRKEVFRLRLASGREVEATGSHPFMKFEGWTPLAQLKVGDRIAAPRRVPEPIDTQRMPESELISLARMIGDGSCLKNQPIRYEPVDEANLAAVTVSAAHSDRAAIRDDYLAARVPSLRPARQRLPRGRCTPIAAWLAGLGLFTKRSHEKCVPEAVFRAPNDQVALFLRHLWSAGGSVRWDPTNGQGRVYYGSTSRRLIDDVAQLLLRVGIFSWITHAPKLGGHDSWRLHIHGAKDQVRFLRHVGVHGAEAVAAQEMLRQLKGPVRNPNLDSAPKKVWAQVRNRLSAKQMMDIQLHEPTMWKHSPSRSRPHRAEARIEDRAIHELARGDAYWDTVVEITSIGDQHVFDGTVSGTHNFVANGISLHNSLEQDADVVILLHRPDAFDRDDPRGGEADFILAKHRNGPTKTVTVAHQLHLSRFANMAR

Protein RecA = biological target: T5, Protein RecA (Mycobacterium tuberculosis, UniProt P9WHJ3); assay: Fluorescence Cell-Free Homogeneous Dose Retest to Identify Inhibitors of RecA-Intein Splicing Activity. [Related pubchem assays (depositor defined):AID2097, AID2223, AID489010, AID492950]; type: functional
T5 sequence (P9WHJ3 whole entry): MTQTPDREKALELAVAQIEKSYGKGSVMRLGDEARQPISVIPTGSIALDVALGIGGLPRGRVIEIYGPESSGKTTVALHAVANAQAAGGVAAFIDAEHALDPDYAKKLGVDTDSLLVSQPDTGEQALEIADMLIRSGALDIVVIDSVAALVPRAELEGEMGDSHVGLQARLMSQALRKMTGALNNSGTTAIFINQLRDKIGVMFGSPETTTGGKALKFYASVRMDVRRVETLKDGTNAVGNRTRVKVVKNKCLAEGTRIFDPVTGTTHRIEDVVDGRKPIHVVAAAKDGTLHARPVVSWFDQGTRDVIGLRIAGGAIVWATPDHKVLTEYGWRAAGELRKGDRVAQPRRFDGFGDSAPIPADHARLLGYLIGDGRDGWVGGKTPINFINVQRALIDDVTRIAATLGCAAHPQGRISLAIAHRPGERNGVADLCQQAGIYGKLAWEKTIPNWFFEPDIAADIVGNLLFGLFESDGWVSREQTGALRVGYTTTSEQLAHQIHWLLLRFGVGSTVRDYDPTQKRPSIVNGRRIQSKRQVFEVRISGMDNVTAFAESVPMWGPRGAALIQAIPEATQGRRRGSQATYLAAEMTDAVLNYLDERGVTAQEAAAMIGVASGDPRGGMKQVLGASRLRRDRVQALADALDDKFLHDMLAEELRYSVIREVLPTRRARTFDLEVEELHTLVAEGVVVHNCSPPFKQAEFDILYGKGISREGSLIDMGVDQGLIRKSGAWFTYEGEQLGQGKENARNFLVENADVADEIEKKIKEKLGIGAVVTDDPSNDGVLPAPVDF

[11] = HepG2 cell cytotoxicity, dose response, cytotoxicity control for Shn3 inhibitor project, CellTiter-Glo, cherry-picked (AID 624134); type: functional, cell-based
[12] = microbe, parasite or virus in culture; type: functional; settings: Mycobacterium tuberculosis
[13] = biological target: T6, Heat shock factor protein 1 (Mus musculus, UniProt P38532); assay: inhibition of MG132-induced HSE-luciferase signal, confirmation, cell-based, NIH3T3, luminescence, dose retest (AID 2382); type: functional;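 note: NIH3T3 fibroblasts with HSF1-driven luciferase reporter stressed by proteasome inhibitor MG132; luminescence from HSF1-driven luciferase expression after 8 hours of MG132 stress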
T6 sequence (P38532 whole entry): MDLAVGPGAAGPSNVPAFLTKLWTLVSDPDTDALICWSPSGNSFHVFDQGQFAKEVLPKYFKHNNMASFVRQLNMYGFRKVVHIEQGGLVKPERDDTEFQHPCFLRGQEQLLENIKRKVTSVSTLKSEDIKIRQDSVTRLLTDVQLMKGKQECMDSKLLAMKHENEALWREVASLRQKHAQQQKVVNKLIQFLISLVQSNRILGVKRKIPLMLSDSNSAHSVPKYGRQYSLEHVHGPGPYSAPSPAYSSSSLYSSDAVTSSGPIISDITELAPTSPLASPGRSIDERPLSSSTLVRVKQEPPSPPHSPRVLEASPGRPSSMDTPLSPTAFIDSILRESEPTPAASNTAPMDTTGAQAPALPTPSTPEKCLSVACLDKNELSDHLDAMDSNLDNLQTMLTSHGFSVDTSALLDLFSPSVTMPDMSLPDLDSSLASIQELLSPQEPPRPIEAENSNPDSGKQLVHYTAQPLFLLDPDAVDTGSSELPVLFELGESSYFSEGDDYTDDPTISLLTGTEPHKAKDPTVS

[14] = biological target: Sphingosine 1-phosphate receptor 1 (Homo sapiens, UniProt P21453); type: functional;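 note: Tango beta-arrestin reporter U2OS cells stimulated with S1P near its EC80; inhibitor potency meaning antagonism of receptor activation by the natural agonist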
[15] = inhibitors of intracellular T. cruzi replication, confirmation, NIH3T3 host cells, beta-gal luminescence (AID 2044); type: functional, cell-based;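 note: intracellular parasites grown in NIH/3T3 mouse fibroblasts as host cells; luminescent beta-galactosidase reporter signal from transgenic T. cruzi replicating inside host cells; inhibitors lower the luminescence signal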
[16] = cytotoxicity in KRAS-transformed pancreatic duct cells, primary screen, cell-based, fluorescence, HTS (AID 431); type: functional; settings: Homo sapiens;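 note: cell line used: HPDE-C7K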
[17] = cytotoxicity toward NIH3T3 fibroblasts, dose response, counter-screen, cell-based, ATP luminescence, mouse fibroblasts (AID 2010); type: functional;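 note: cells exposed to compound for about 90 hours before reading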
[18] = control 3'UTR Renilla luciferase suppression, dose response, counter-screen for Shn3 inhibitor project, cell-based, Clone20-Shn3RL, cherry-picked (AID 624133); type: functional
[19] = biological target: DNA dC->dU-editing enzyme APOBEC-3G (Homo sapiens, UniProt Q9HC16); assay: APOBEC3G deaminase inhibitors, SAR follow-up, biochemical, fluorescence, single-stranded DNA substrate (AID 602136); type: functional; settings: read-out: IC50_Mean
[20] = biological target: DNA dC->dU-editing enzyme APOBEC-3A (Homo sapiens, UniProt P31941); assay: SAR analysis of small molecule inhibitors of APOBEC3A DNA Deaminase via a fluorescence-based single-stranded DNA deaminase assay.; type: functional; settings: read-out: IC50_Mean
Sequence of DNA dC->dU-editing enzyme APOBEC-3A (P31941 whole entry): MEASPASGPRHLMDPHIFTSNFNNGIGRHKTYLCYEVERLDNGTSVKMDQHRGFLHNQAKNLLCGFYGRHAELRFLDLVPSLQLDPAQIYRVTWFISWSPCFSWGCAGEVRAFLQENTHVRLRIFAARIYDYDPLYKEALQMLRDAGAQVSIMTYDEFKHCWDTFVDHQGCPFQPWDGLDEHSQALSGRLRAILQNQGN

Sequence of DNA dC->dU-editing enzyme APOBEC-3G (Q9HC16 whole entry): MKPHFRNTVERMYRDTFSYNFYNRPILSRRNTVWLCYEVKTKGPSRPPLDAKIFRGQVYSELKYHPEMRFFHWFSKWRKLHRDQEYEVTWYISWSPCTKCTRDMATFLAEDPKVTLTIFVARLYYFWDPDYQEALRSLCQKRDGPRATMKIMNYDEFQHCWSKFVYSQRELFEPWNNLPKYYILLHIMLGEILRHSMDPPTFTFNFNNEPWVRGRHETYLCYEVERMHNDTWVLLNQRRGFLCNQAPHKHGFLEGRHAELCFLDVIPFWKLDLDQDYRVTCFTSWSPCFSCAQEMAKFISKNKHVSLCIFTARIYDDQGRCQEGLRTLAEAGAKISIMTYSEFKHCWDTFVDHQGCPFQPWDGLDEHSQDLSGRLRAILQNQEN
Sequence of Sphingosine 1-phosphate receptor 1 (P21453 whole entry): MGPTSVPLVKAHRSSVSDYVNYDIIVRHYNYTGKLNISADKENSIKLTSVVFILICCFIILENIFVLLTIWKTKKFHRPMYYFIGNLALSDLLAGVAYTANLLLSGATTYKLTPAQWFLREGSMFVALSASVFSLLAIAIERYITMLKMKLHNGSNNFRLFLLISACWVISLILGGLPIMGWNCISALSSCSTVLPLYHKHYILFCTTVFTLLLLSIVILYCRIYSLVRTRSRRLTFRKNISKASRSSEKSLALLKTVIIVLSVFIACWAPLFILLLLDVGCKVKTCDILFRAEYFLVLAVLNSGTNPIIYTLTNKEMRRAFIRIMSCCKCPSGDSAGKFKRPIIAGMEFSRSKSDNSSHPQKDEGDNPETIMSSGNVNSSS
Sequence of Botulinum neurotoxin type A (P0DPI1 2-448 limits assumed): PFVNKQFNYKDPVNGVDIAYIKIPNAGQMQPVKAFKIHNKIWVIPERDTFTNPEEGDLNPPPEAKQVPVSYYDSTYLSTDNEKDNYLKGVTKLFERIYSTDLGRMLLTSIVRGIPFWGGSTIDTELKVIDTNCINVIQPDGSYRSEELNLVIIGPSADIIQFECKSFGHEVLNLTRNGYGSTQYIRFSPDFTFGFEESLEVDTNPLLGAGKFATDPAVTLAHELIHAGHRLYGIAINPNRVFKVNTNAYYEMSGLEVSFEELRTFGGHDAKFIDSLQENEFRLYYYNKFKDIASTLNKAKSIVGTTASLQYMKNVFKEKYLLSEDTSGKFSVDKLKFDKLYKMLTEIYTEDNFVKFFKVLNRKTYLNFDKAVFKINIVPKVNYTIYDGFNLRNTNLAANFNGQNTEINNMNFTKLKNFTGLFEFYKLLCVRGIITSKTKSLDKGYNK
Sequence of Protein disulfide-isomerase (P07237 whole entry): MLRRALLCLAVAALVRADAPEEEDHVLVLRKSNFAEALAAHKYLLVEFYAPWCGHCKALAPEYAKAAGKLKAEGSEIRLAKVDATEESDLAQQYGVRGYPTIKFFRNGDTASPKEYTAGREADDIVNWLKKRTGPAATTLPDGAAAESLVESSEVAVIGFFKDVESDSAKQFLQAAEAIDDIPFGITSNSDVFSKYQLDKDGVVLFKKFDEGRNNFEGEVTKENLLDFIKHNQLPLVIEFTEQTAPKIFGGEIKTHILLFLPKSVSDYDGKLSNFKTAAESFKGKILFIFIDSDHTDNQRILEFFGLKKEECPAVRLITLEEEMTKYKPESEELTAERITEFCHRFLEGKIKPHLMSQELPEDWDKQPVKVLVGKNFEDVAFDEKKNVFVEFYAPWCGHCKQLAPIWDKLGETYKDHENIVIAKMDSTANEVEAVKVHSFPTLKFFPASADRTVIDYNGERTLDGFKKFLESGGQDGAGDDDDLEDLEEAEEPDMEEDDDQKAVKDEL
Sequence of Beta Lactamase (Q932Y6 whole entry, the tested form may be a part): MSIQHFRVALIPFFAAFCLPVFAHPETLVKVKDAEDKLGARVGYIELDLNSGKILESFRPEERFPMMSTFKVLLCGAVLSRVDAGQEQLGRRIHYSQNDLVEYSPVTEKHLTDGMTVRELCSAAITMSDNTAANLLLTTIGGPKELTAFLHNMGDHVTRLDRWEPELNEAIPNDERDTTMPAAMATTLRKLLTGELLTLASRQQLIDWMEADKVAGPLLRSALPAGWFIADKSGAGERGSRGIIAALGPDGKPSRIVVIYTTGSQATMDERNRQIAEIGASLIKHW
Sequence of Trypsin (P00761 whole entry): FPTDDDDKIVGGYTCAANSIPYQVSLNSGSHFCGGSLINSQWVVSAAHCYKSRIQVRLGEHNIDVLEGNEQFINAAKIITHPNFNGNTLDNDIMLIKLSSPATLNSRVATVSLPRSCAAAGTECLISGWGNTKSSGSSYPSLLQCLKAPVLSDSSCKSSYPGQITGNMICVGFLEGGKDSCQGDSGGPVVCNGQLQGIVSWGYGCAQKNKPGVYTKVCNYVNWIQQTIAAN
Sequence of Sphingosine 1-phosphate receptor 4 (O95977 whole entry): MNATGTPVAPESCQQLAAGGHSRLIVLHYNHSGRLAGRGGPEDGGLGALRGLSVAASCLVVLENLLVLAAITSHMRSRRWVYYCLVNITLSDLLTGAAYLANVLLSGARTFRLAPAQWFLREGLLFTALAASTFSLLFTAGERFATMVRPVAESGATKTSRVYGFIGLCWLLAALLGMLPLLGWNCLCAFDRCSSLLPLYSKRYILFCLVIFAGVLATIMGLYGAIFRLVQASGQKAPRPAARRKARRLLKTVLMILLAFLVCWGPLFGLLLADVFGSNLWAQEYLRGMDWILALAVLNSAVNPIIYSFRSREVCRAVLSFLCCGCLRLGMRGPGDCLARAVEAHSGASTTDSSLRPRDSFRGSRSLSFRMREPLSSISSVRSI
Sequence of DNA damage-inducible transcript 3 protein (P35639 whole entry): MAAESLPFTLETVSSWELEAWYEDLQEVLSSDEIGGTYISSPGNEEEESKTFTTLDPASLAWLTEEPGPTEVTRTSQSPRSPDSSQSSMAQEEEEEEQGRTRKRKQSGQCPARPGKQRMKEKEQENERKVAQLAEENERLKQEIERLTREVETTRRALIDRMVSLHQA

COc1ccc(OC)c(-c2nc3cc4ccccc4cc3nc2-c2ccccc2)c1
EC50 [1]: 17.9 µM (active)

COc1ccc(C(=O)Nc2ccccc2C(=O)NCc2ccco2)cc1
AC50 [2]: 0.819 µM (active)

CCOc1cc(S(=O)(=O)N(Cc2ccccc2)Cc2ccccc2)c(OCC)cc1-n1cnnn1
AC50 (CAAX prenyl protease 2 [3]): 16.8 µM (active)
AC50 (CAAX prenyl protease 2 [4]): 35.6 µM (active)
AC50 (Cytochrome P450 1A2): 15.8 µM (inconclusive)
AC50 (CAAX prenyl protease 2 [5]): 1.45 µM (active)
AC50 (Trypsin): 34 µM (active)

CS(=O)(=O)c1nc(-c2ccccc2)cc(C(F)(F)F)n1
Absolute IC50 (CHOP) [6]: 10 µM
EC50 [7]: 4.36 µM (active)
AC50 [8]: 1.53 µM (active)
IC50 (Beta Lactamase): 29.1 µM (inactive)
IC50 (CHO): 3.23 µM (active)
IC50 [9]: 1.09 µM (active)
AC50 [10]: 4.91 µM (active)
EC50 (Protein RecA): 5.53 µM (active)
AC50 [11]: 16 µM (active)
CC50 [12]: 30.7 µM (active)
EC50 [13]: 8.84 µM (inconclusive)
IC50 [14]: 16.7 µM (not active)
EC50 [15]: 2.21 µM (active)
EC50 [16]: 4.8 µM (active)
EC50 [17]: 2.55 µM (active)
AC50 [18]: 7.07 µM (active)

Cc1cc(C(=O)N2CCCC(NS(C)(=O)=O)C2)c(C)n1Cc1ccccc1 (stereo not given)
IC50 [19]: > 99 µM (inactive)
IC50 [20]: > 99 µM (inactive)

— ChEMBL document CHEMBL1201862, “PubChem BioAssay data set” (2004)
